Laboratory results: US4485110A, “β-Lactam compounds, and use” (priority 1980, dated 1984)
Like-named read-outs stand apart in the source and are kept apart here.

Tests used:
Assay type in all cases: cell-based
[1] = test system: B. subtilis A; assay: Antibacterial activity, broth MIC; details: Bacillus subtilis, compound alone
Excerpt: (§1) The antibacterial activity of a number of compounds described in the foregoing Examples against a number of organisms is shown in Tables 1 and 10.

[2] = test system: C. freundii E 8; assay: Antibacterial activity, broth MIC; details: Citrobacter freundii, E8; compound alone, broth; read-out: Broth MIC
Excerpt: as §1

[3] = test system: E. cloacae N 1; assay: Antibacterial activity, broth MIC; details: Enterobacter cloacae, N1, compound alone
Excerpt: as §1

[4] = test system: E. coli 0111; assay: Antibacterial activity, broth MIC; details: Escherichia coli, compound alone
Excerpt: as §1

[5] = test system: E. coli ESS; assay: Antibacterial activity, broth MIC; details: Escherichia coli, read-out: Broth MIC
Excerpt: as §1

[6] = test system: E. coli JT 39 R^+; assay: Antibacterial activity, broth MIC; details: Escherichia coli; compound alone, broth; read-out: Broth MIC
Excerpt: as §1

[7] = test system: K. aerogenes A; assay: Antibacterial activity, broth MIC; details: Klebsiella aerogenes; compound alone, broth; read-out: Broth MIC
Excerpt: as §1

[8] = test system: P. aeruginosa A; assay: Antibacterial activity, broth MIC; details: Pseudomonas aeruginosa, compound alone
Excerpt: as §1

[9] = test system: P. mirabilis 977; assay: Antibacterial activity, broth MIC; details: Proteus mirabilis, compound alone
Excerpt: as §1

[10] = test system: P. morganii I 580; assay: Antibacterial activity, broth MIC; details: Morganella morganii, I580, compound alone
Excerpt: as §1

[11] = test system: P. rettgeri WM 16; assay: Antibacterial activity, broth MIC; details: Providencia rettgeri, WM16, compound alone
Excerpt: as §1

[12] = test system: P. vulgaris WO 91; assay: Antibacterial activity, broth MIC; details: Proteus vulgaris, WO91, compound alone
Excerpt: as §1

[13] = test system: S. aureus 1517; assay: Antibacterial activity, broth MIC; details: Staphylococcus aureus, compound alone
Excerpt: as §1

[14] = test system: S. aureus Oxford; assay: Antibacterial activity, broth MIC; details: Staphylococcus aureus, compound alone
Excerpt: as §1

[15] = test system: S. aureus Russell; assay: Antibacterial activity, broth MIC; details: Staphylococcus aureus, compound alone
Excerpt: as §1

[16] = test system: S. faecalis I; assay: Antibacterial activity, broth MIC; details: Enterococcus faecalis; compound alone, broth; read-out: Broth MIC
Excerpt: as §1

[17] = test system: S. marcescens US 20; assay: Antibacterial activity, broth MIC; details: Serratia marcescens, US20; compound alone, broth; read-out: Broth MIC
Excerpt: as §1

[18] = test system: S. pneumoniae CN 33; assay: Antibacterial activity, broth MIC; details: Streptococcus pneumoniae, CN33, compound alone
Excerpt: as §1

[19] = test system: S. pyogenes CN 10; assay: Antibacterial activity, broth MIC; details: Streptococcus pyogenes, CN10, compound alone
Excerpt: as §1

[20] = test system: S. sonnei MB 11967; assay: Antibacterial activity, broth MIC; details: Shigella sonnei, MB11967, compound alone
Excerpt: as §1

[21] = test system: S. typhimurium CT 10; assay: Antibacterial activity, broth MIC; details: Salmonella enterica, compound alone
Excerpt: as §1

[22] = test system: E. cloacae N1; assay: β-Lactamase inhibitory activity: antibiotic MIC alone or in combination; details: for MIC: Enterobacter cloacae
[23] = test system: C. freundii B10R+; assay: as above; details: Citrobacter freundii
Excerpt: (§2) These tables show the MIC values of amoxycillin, cephaloridine, ticarcillin and apalcillin against a number of β-lactamase producing organisms.

[24] = test system: C. freundii E8; assay: as above; details: for MIC: Citrobacter freundii
Excerpt: as §2

[25] = test system: E. coli 0111; assay: as above
Excerpt: as §2

[26] = test system: E. coli JT20R+; assay: as above; details: Escherichia coli
Excerpt: as §2

[27] = test system: E. coli JT39R+; assay: as above; details: for MIC: Escherichia coli
Excerpt: as §2

[28] = test system: E. coli JT410 C+; assay: as above; details: for MIC: Escherichia coli
Excerpt: as §2

[29] = test system: K. aerogenes A; assay: as above; details: Klebsiella aerogenes
Excerpt: as §2

[30] = test system: K. aerogenes Ba95R+; assay: as above; details: Klebsiella aerogenes
Excerpt: as §2

[31] = test system: K. aerogenes I112; assay: as above; details: for MIC: Klebsiella aerogenes
Excerpt: as §2

[32] = test system: P. aeruginosa A; assay: as above; details: Pseudomonas aeruginosa
Excerpt: as §2

[33] = test system: P. aeruginosa Dalgleish; assay: as above; details: Pseudomonas aeruginosa
Excerpt: as §2

[34] = test system: P. mirabilis 889; assay: as above
Excerpt: as §2

[35] = test system: P. mirabilis 977; assay: as above
Excerpt: as §2

[36] = test system: P. morganii 1580; assay: as above
Excerpt: as §2

[37] = test system: P. rettgeri WM16; assay: as above; details: for MIC: Providencia rettgeri
Excerpt: as §2

[38] = test system: P. vulgaris WO91; assay: as above; details: for MIC: Proteus vulgaris
Excerpt: as §2

[39] = test system: S. aureus MB9; assay: as above; details: Staphylococcus aureus
Excerpt: as §2

[40] = test system: S. aureus Russell; assay: as above; details: Staphylococcus aureus
Excerpt: as §2

[41] = test system: S. marcescens US20; assay: as above; details: for MIC: Serratia marcescens
Excerpt: as §2

[42] = apalcillin alone, read-out: Apalcillin MIC
[43] = cephaloridine alone, read-out: Cephaloridine MIC
[44] = ticarcillin alone, read-out: Ticarcillin MIC

CC=C1C(=O)N2C(C(=O)O)=C([S+]([O-])CC)SC12 (racemic) [Compound 103, (5RS)-Sodium 6-Ethylidene-2-ethylsulphinylpenem-3-carboxylate]
MIC [1]: 25 µg/mL | MIC [2]: > 100 µg/mL | MIC [3]: > 100 µg/mL | MIC [4]: > 100 µg/mL | MIC ([5]; compound alone, broth): 100 µg/mL | MIC [6]: > 100 µg/mL | MIC [7]: > 100 µg/mL | MIC [8]: > 100 µg/mL | MIC [9]: 100 µg/mL | MIC [10]: > 100 µg/mL | MIC [11]: > 100 µg/mL | MIC [12]: > 100 µg/mL | MIC [13]: > 100 µg/mL | MIC [14]: 50 µg/mL | MIC [15]: > 100 µg/mL | MIC [16]: > 100 µg/mL | MIC [17]: > 100 µg/mL | MIC [18]: 25 µg/mL | MIC [19]: 12.5 µg/mL | MIC [20]: > 100 µg/mL | MIC [21]: > 100 µg/mL

CC1(C)S[C@@H]2[C@H](NC(=O)[C@H](NC(=O)c3cnc4cccnc4c3O)c3ccccc3)C(=O)N2[C@H]1C(=O)O [Apalcillin]
MIC ([22]; N1, apalcillin alone, read-out: Apalcillin MIC): 5 µg/mL | MIC ([23]; read-out: Apalcillin MIC): > 1000 µg/mL | MIC ([24]; E8, apalcillin alone, read-out: Apalcillin MIC): 2.5 µg/mL | MIC ([25]; Escherichia coli, 0111, apalcillin alone, read-out: Apalcillin MIC): 2.5 µg/mL | MIC ([26]; read-out: Apalcillin MIC): > 1000 µg/mL | MIC ([27]; read-out: Apalcillin MIC, apalcillin alone): 1000 µg/mL | MIC [28, 42]: 25 µg/mL | MIC [29, 42]: 10 µg/mL | MIC ([30]; read-out: Apalcillin MIC): > 1000 µg/mL | MIC ([31]; I112, read-out: Apalcillin MIC, apalcillin alone): 25 µg/mL | MIC [32, 42]: 2.5 µg/mL | MIC [33, 42]: > 1000 µg/mL | MIC ([34]; Proteus mirabilis, 889, apalcillin alone, read-out: Apalcillin MIC): > 1000 µg/mL | MIC ([35]; Proteus mirabilis, 977, apalcillin alone, read-out: Apalcillin MIC): 2.5 µg/mL | MIC ([36]; Morganella morganii, 1580, apalcillin alone, read-out: Apalcillin MIC): 1000 µg/mL | MIC ([37]; WM16, apalcillin alone, read-out: Apalcillin MIC): 10 µg/mL | MIC ([38]; WO91, apalcillin alone, read-out: Apalcillin MIC): 10 µg/mL | MIC ([39]; MB9, apalcillin alone, read-out: Apalcillin MIC): 50 µg/mL | MIC [40, 42]: 250 µg/mL | MIC ([41]; US20, apalcillin alone, read-out: Apalcillin MIC): 5 µg/mL

O=C(Cc1cccs1)N[C@@H]1C(=O)N2C(C(=O)[O-])=C(C[n+]3ccccc3)CS[C@H]12 [Cephaloridine]
MIC ([22]; N1, cephaloridine alone, read-out: Cephaloridine MIC): 500 µg/mL | Cephaloridine MIC ([22]; cephaloridine alone): 1000 µg/mL | MIC ([23]; read-out: Cephaloridine MIC): > 1000 µg/mL | MIC ([24]; E8, cephaloridine alone, read-out: Cephaloridine MIC): 500 µg/mL | MIC ([25]; Escherichia coli, 0111, cephaloridine alone, read-out: Cephaloridine MIC): 2.5 µg/mL | Cephaloridine MIC ([25]; cephaloridine alone): 5.0 µg/mL | MIC ([26]; read-out: Cephaloridine MIC): 25 µg/mL | MIC ([27]; read-out: Cephaloridine MIC, cephaloridine alone): 5 µg/mL | Cephaloridine MIC ([27]; cephaloridine alone): 10 µg/mL | MIC [28, 43]: 50 µg/mL | Cephaloridine MIC ([28]; cephaloridine alone): 100 µg/mL | MIC [29, 43]: 2.5 µg/mL | MIC ([30]; read-out: Cephaloridine MIC): 100 µg/mL | MIC ([31]; I112, read-out: Cephaloridine MIC, cephaloridine alone): 5 µg/mL | MIC [32, 43]: > 1000 µg/mL | MIC [33, 43]: > 1000 µg/mL | MIC ([35]; Proteus mirabilis, 977, cephaloridine alone, read-out: Cephaloridine MIC): 10 µg/mL | Cephaloridine MIC ([35]; cephaloridine alone): 5.0 µg/mL | MIC ([36]; Morganella morganii, 1580, cephaloridine alone, read-out: Cephaloridine MIC): 1000 µg/mL | Cephaloridine MIC ([36]; cephaloridine alone): > 1000 µg/mL | MIC ([37]; WM16, cephaloridine alone, read-out: Cephaloridine MIC): 1000 µg/mL | Cephaloridine MIC ([37]; cephaloridine alone): > 1000 µg/mL | MIC ([38]; WO91, cephaloridine alone, read-out: Cephaloridine MIC): 1000 µg/mL | Cephaloridine MIC ([38]; cephaloridine alone): > 1000 µg/mL | MIC ([39]; MB9, cephaloridine alone, read-out: Cephaloridine MIC): < 0.2 µg/mL | MIC ([41]; US20, cephaloridine alone, read-out: Cephaloridine MIC): 1000 µg/mL | Cephaloridine MIC ([41]; cephaloridine alone): > 1000 µg/mL

CCSC1=C(C(=O)O)N2C(=O)C(=Cc3ccccc3)C2S1 (stereo not drawn) [Compound 118, (5RS)-Sodium (Z)-6-Benzylidene-2-ethylthiopenem-3-carboxylate]
MIC [1]: 12.5 µg/mL | MIC [2]: > 100 µg/mL | MIC [3]: > 100 µg/mL | MIC [4]: > 100 µg/mL | MIC [5]: > 1.6 µg/mL | MIC [6]: > 100 µg/mL | MIC [7]: > 100 µg/mL | MIC [8]: > 100 µg/mL | MIC [9]: > 100 µg/mL | MIC [10]: > 100 µg/mL | MIC [11]: > 100 µg/mL | MIC [12]: > 100 µg/mL | MIC [13]: 100 µg/mL | MIC [14]: 1.6 µg/mL | MIC [15]: 3.1 µg/mL | MIC [16]: > 100 µg/mL | MIC [17]: > 100 µg/mL | MIC [18]: 1.6 µg/mL | MIC [19]: 1.6 µg/mL | MIC [20]: > 100 µg/mL | MIC [21]: > 100 µg/mL

CC1(C)S[C@@H]2[C@H](NC(=O)[C@H](C(=O)O)c3ccsc3)C(=O)N2[C@H]1C(=O)O [Ticarcillin]
MIC ([22]; N1, ticarcillin alone, read-out: Ticarcillin MIC): 2.5 µg/mL | MIC ([23]; read-out: Ticarcillin MIC): > 1000 µg/mL | MIC ([24]; E8, ticarcillin alone, read-out: Ticarcillin MIC): 2.5 µg/mL | Ticarcillin MIC ([24]; ticarcillin alone): 5.0 µg/mL | MIC ([25]; Escherichia coli, 0111, ticarcillin alone, read-out: Ticarcillin MIC): 5 µg/mL | MIC ([26]; read-out: Ticarcillin MIC): > 1000 µg/mL | MIC ([27]; read-out: Ticarcillin MIC, ticarcillin alone): > 1000 µg/mL | MIC [29, 44]: 100 µg/mL | MIC ([30]; read-out: Ticarcillin MIC): > 1000 µg/mL | MIC ([31]; I112, read-out: Ticarcillin MIC, ticarcillin alone): 500 µg/mL | Ticarcillin MIC ([31]; ticarcillin alone): 250 µg/mL | MIC [32, 44]: 25 µg/mL | MIC [33, 44]: > 1000 µg/mL | MIC ([34]; Proteus mirabilis, 889, ticarcillin alone, read-out: Ticarcillin MIC): > 1000 µg/mL | MIC ([35]; Proteus mirabilis, 977, ticarcillin alone, read-out: Ticarcillin MIC): 1 µg/mL | MIC ([39]; MB9, ticarcillin alone, read-out: Ticarcillin MIC): 10 µg/mL | MIC [40, 44]: 25 µg/mL | MIC ([41]; US20, ticarcillin alone, read-out: Ticarcillin MIC): 5 µg/mL
